Results from publication PMC5218480 (PLoS ONE, 2017).

Test system: MV-4-11 cells
Test: Gene expression microarray analysis (Affymetrix PrimeView) and GSEA
Format: cell-based, human
Parameters: RFU PODN (11730768_x_at) / Fold change /veh PODN (11730768_x_at) / RFU LINC00158 (11744669_a_at) / Fold change /veh LINC00158 (11744669_a_at) / RFU DUSP10 (11751237_a_at) / Fold change /veh DUSP10 (11751237_a_at) / RFU ID3 (11757404_x_at) / Fold change /veh ID3 (11757404_x_at) / RFU PLEKHG5 (11737974_s_at) / Fold change /veh PLEKHG5 (11737974_s_at) / RFU LRRC4B (11730491_at) / Fold change /veh LRRC4B (11730491_at) / RFU GIMAP4 (11747438_a_at) / Fold change /veh GIMAP4 (11747438_a_at) / RFU KRT8 (11758183_x_at) / Fold change /veh KRT8 (11758183_x_at) / RFU CNN1 (11734310_a_at) / Fold change /veh CNN1 (11734310_a_at) / RFU VPS37D (11726825_at) / Fold change /veh VPS37D (11726825_at) / RFU C10orf10 (11716522_x_at) / Fold change /veh C10orf10 (11716522_x_at) / RFU KIR2DL2 /// KIR2DL4 /// KIR2DL5A /// KIR2DL5B /// KIR2DS1 /// KIR2DS2 /// KIR2DS3 /// KIR2DS4 /// KIR3DL3 /// KIR3DL3 /// KIR3DS1 (11738374_at) / Fold change /veh KIR2DL2 /// KIR2DL4 /// KIR2DL5A /// KIR2DL5B /// KIR2DS1 /// KIR2DS2 /// KIR2DS3 /// KIR2DS4 /// KIR3DL3 /// KIR3DL3 /// KIR3DS1 (11738374_at) / RFU C1QL1 (11718748_at) / Fold change /veh C1QL1 (11718748_at) / RFU TMPRSS4 (11747572_a_at) / Fold change /veh TMPRSS4 (11747572_a_at) / RFU HAMP (11756126_x_at) / Fold change /veh HAMP (11756126_x_at) / RFU RNFT2 (11725882_a_at) / Fold change /veh RNFT2 (11725882_a_at) / RFU NR4A2 (11747474_a_at) / Fold change /veh NR4A2 (11747474_a_at) / RFU ABCC12 (11746883_a_at) / Fold change /veh ABCC12 (11746883_a_at) / RFU TMEM136 (11760407_x_at) / Fold change /veh TMEM136 (11760407_x_at) / RFU CLDN22 /// WWC2 (11732394_at) / Fold change /veh CLDN22 /// WWC2 (11732394_at) / RFU HLA-DPB1 (11760878_x_at) / Fold change /veh HLA-DPB1 (11760878_x_at) / RFU SPINT1 (11716480_a_at) / Fold change /veh SPINT1 (11716480_a_at) / RFU GAP43 (11754022_s_at) / Fold change /veh GAP43 (11754022_s_at) / RFU A4GNT (11735810_at) / Fold change /veh A4GNT (11735810_at) / RFU PRB3 (11715151_x_at) / Fold change /veh PRB3 (11715151_x_at) / RFU TUBB4B (11761932_at) / Fold change /veh TUBB4B (11761932_at) / RFU CAPN14 (11732068_a_at) / Fold change /veh CAPN14 (11732068_a_at) / RFU TMCC2 (11721928_a_at) / Fold change /veh TMCC2 (11721928_a_at) / RFU IRGQ (11745062_a_at) / Fold change /veh IRGQ (11745062_a_at) / RFU FAM174B (11720279_a_at) / Fold change /veh FAM174B (11720279_a_at) / RFU TMPRSS4 (11748680_a_at) / Fold change /veh TMPRSS4 (11748680_a_at) / RFU FAM212B (11763350_a_at) / Fold change /veh FAM212B (11763350_a_at) / RFU PLEKHG5 (11743358_a_at) / Fold change /veh PLEKHG5 (11743358_a_at) / RFU ZSCAN30 (11745921_a_at) / Fold change /veh ZSCAN30 (11745921_a_at) / RFU CMKLR1 (11741424_a_at) / Fold change /veh CMKLR1 (11741424_a_at) / RFU LOC101060620 /// MAPK8IP1 (11723275_at) / Fold change /veh LOC101060620 /// MAPK8IP1 (11723275_at) / RFU SPTSSB (11747773_x_at) / Fold change /veh SPTSSB (11747773_x_at) / RFU PRSS12 (11739890_at) / Fold change /veh PRSS12 (11739890_at) / RFU BIN1 (11741810_x_at) / Fold change /veh BIN1 (11741810_x_at) / RFU WNT11 (11732464_a_at) / Fold change /veh WNT11 (11732464_a_at) / RFU C10orf10 (11716521_a_at) / Fold change /veh C10orf10 (11716521_a_at) / RFU C5orf56 (11738089_at) / Fold change /veh C5orf56 (11738089_at) / RFU CYB561 (11721691_x_at) / Fold change /veh CYB561 (11721691_x_at) / RFU ANKRD19P (11752326_a_at) / Fold change /veh ANKRD19P (11752326_a_at) / RFU OR2T12 /// OR2T33 /// OR2T8 (11738714_s_at) / Fold change /veh OR2T12 /// OR2T33 /// OR2T8 (11738714_s_at) / RFU VCAN (11748164_a_at) / Fold change /veh VCAN (11748164_a_at) / RFU JSRP1 (11732532_at) / Fold change /veh JSRP1 (11732532_at) / RFU KRTAP10-11 (11738290_x_at) / Fold change /veh KRTAP10-11 (11738290_x_at) / RFU MYO3A (11730013_a_at) / Fold change /veh MYO3A (11730013_a_at) / RFU EBF3 (11725865_a_at) / Fold change /veh EBF3 (11725865_a_at) / RFU CAMK2N1 (11719241_x_at) / Fold change /veh CAMK2N1 (11719241_x_at) / RFU C5orf56 (11738088_a_at) / Fold change /veh C5orf56 (11738088_a_at) / RFU OLFML3 (11715873_a_at) / Fold change /veh OLFML3 (11715873_a_at) / RFU LOC100653217 /// NTM (11731650_a_at) / Fold change /veh LOC100653217 /// NTM (11731650_a_at) / RFU MAPK11 (11762145_a_at) / Fold change /veh MAPK11 (11762145_a_at) / RFU FIZ1 (11724087_x_at) / Fold change /veh FIZ1 (11724087_x_at) / RFU OASL (11726364_x_at) / Fold change /veh OASL (11726364_x_at) / RFU SOX15 (11748057_x_at) / Fold change /veh SOX15 (11748057_x_at) / RFU CD79A (11719716_a_at) / Fold change /veh CD79A (11719716_a_at) / RFU HIST1H1D (11736915_at) / Fold change /veh HIST1H1D (11736915_at) / RFU CASKIN2 (11723855_a_at) / Fold change /veh CASKIN2 (11723855_a_at) / RFU LOC730098 (11760151_x_at) / Fold change /veh LOC730098 (11760151_x_at) / RFU OR4N2 (11742367_at) / Fold change /veh OR4N2 (11742367_at) / RFU PRRT2 (11749266_a_at) / Fold change /veh PRRT2 (11749266_a_at) / RFU SNX32 (11753110_a_at) / Fold change /veh SNX32 (11753110_a_at) / RFU CDHR5 (11726645_a_at) / Fold change /veh CDHR5 (11726645_a_at) / RFU RCAN1 (11760418_a_at) / Fold change /veh RCAN1 (11760418_a_at) / RFU FAM167A (11723789_a_at) / Fold change /veh FAM167A (11723789_a_at) / RFU FAM26E (11764081_at) / Fold change /veh FAM26E (11764081_at) / RFU ISYNA1 (11749810_s_at) / Fold change /veh ISYNA1 (11749810_s_at) / RFU ACY1 (11761880_at) / Fold change /veh ACY1 (11761880_at) / RFU 11764098_at / Fold change /veh 11764098_at / RFU SAMD14 (11745864_x_at) / Fold change /veh SAMD14 (11745864_x_at) / RFU NPB (11741838_a_at) / Fold change /veh NPB (11741838_a_at) / RFU TMPRSS6 (11731388_a_at) / Fold change /veh TMPRSS6 (11731388_a_at) / RFU KRTAP10-2 (11738614_at) / Fold change /veh KRTAP10-2 (11738614_at) / RFU ARHGAP8 /// PRR5-ARHGAP8 (11727945_x_at) / Fold change /veh ARHGAP8 /// PRR5-ARHGAP8 (11727945_x_at) / RFU KRTAP5-7 /// NADSYN1 (11734609_at) / Fold change /veh KRTAP5-7 /// NADSYN1 (11734609_at) / RFU RASL12 (11751679_a_at) / Fold change /veh RASL12 (11751679_a_at) / RFU CDKN2B (11736163_a_at) / Fold change /veh CDKN2B (11736163_a_at) / RFU PRF1 (11729649_at) / Fold change /veh PRF1 (11729649_at) / RFU, ZNF638 /// ZNF638-IT1 / Fold change vs veh, ZNF638 /// ZNF638-IT1 / RFU, PANK3 / Fold change vs veh, PANK3 / RFU, SH3YL1 / Fold change vs veh, SH3YL1 / RFU, ZEB2 / Fold change vs veh, ZEB2 / RFU, NRIP1 / Fold change vs veh, NRIP1 / RFU, PTTG1IP / Fold change vs veh, PTTG1IP / RFU, CAPN2 / Fold change vs veh, CAPN2 / RFU, MED14 / Fold change vs veh, MED14 / RFU, SNORA58 / Fold change vs veh, SNORA58 / RFU, C1orf63 / Fold change vs veh, C1orf63 / RFU, LRRFIP1 / Fold change vs veh, LRRFIP1 / RFU, NDUFAF7 / Fold change vs veh, NDUFAF7 / RFU, SLC12A2 / Fold change vs veh, SLC12A2 / RFU, IBTK / Fold change vs veh, IBTK / RFU, ESF1 / Fold change vs veh, ESF1 / Fold change vs veh, TMEM50B / RFU, TAOK1 / Fold change vs veh, TAOK1 / RFU, ACBD3 / Fold change vs veh, ACBD3 / RFU, TMA16 / Fold change vs veh, TMA16 / RFU, RWDD3 / Fold change vs veh, RWDD3 / RFU, BCAT1 / Fold change vs veh, BCAT1 / RFU, EDEM3 / Fold change vs veh, EDEM3 / RFU, TMEM33 / Fold change vs veh, TMEM33 / RFU, WDR75 / Fold change vs veh, WDR75 / RFU, AHCTF1 / Fold change vs veh, AHCTF1 / RFU, TFRC / Fold change vs veh, TFRC / RFU, ZDHHC17 / Fold change vs veh, ZDHHC17 / RFU, NOM1 / Fold change vs veh, NOM1 / RFU, ARL8B / Fold change vs veh, ARL8B / RFU, ZBTB11 / Fold change vs veh, ZBTB11 / RFU, TAMM41 / Fold change vs veh, TAMM41 / RFU, KIAA1704 /// LOC100996395 / Fold change vs veh, KIAA1704 /// LOC100996395 / RFU, ING1 / Fold change vs veh, ING1 / RFU, TRMT61B / Fold change vs veh, TRMT61B / RFU, FUBP3 / Fold change vs veh, FUBP3 / RFU, TP53 / Fold change vs veh, TP53 / RFU, TNKS2 / Fold change vs veh, TNKS2 / RFU, ZFP14 / Fold change vs veh, ZFP14 / RFU, ACTR2 / Fold change vs veh, ACTR2 / RFU, PPP3R1 / Fold change vs veh, PPP3R1 / RFU, PIK3R1 / Fold change vs veh, PIK3R1 / RFU, HNRNPA1 / Fold change vs veh, HNRNPA1 / RFU, RNF170 / Fold change vs veh, RNF170 / RFU, ZNF28 / Fold change vs veh, ZNF28 / RFU, RNGTT / Fold change vs veh, RNGTT / RFU, OGT / Fold change vs veh, OGT / RFU, BRD1 / Fold change vs veh, BRD1 / RFU, MARS / Fold change vs veh, MARS / RFU, ZNF655 / Fold change vs veh, ZNF655 / RFU, FAHD1 / Fold change vs veh, FAHD1 / RFU, BDP1 / Fold change vs veh, BDP1 / RFU, LRRCC1 / Fold change vs veh, LRRCC1 / RFU, ARID1A / Fold change vs veh, ARID1A / RFU, ZNF146 / Fold change vs veh, ZNF146 / RFU, ZNF330 / Fold change vs veh, ZNF330 / RFU, GPN3 / Fold change vs veh, GPN3 / RFU, C9orf123 / Fold change vs veh, C9orf123 / RFU, N4BP2L2 / Fold change vs veh, N4BP2L2 / RFU, ARFIP1 / Fold change vs veh, ARFIP1 / RFU, FAM179B / Fold change vs veh, FAM179B / RFU, BCL10 / Fold change vs veh, BCL10 / RFU, UHRF1BP1L / Fold change vs veh, UHRF1BP1L / RFU, BET1 / Fold change vs veh, BET1 / RFU, CNOT2 / Fold change vs veh, CNOT2 / RFU, ZNF268 / Fold change vs veh, ZNF268 / Fold change vs veh, ZNF507 / RFU, DGCR2 / Fold change vs veh, DGCR2 / RFU, WDSUB1 / Fold change vs veh, WDSUB1 / Fold change vs veh, HSP90B1 /// MIR3652 / RFU, ADSS / Fold change vs veh, ADSS / RFU, GK / Fold change vs veh, GK / RFU, ZNF148 / Fold change vs veh, ZNF148 / RFU, TAF9 / Fold change vs veh, TAF9 / RFU, SLC1A5 / Fold change vs veh, SLC1A5 / RFU, SLMO2 / Fold change vs veh, SLMO2 / RFU, ABCC4 / Fold change vs veh, ABCC4 / RFU, LOC101060439 /// RAP1B / Fold change vs veh, LOC101060439 /// RAP1B / RFU, RFX7 / Fold change vs veh, RFX7 / RFU, GTPBP10 / Fold change vs veh, GTPBP10 / RFU, CNEP1R1 / Fold change vs veh, CNEP1R1 / RFU, BIVM-ERCC5 /// ERCC5 / Fold change vs veh, BIVM-ERCC5 /// ERCC5 / RFU, ILF3 / Fold change vs veh, ILF3 / RFU 11762660_at / Fold change /veh 11762660_at / RFU VCAN (11757783_s_at) / Fold change /veh VCAN (11757783_s_at) / RFU DDX43 (11728927_at) / Fold change /veh DDX43 (11728927_at) / RFU KRT8 (11758188_x_at) / Fold change /veh KRT8 (11758188_x_at) / RFU NKD1 (11759106_at) / Fold change /veh NKD1 (11759106_at) / RFU SRD5A1 (11742802_a_at) / Fold change /veh SRD5A1 (11742802_a_at) / RFU TPSAB1 /// TPSB2 (11721975_s_at) / Fold change /veh TPSAB1 /// TPSB2 (11721975_s_at) / RFU GSTM3 (11746129_a_at) / Fold change /veh GSTM3 (11746129_a_at) / RFU IL23R (11737362_x_at) / Fold change /veh IL23R (11737362_x_at) / RFU TMEM51 (11727254_a_at) / Fold change /veh TMEM51 (11727254_a_at) / RFU PIWIL2 (11732686_x_at) / Fold change /veh PIWIL2 (11732686_x_at) / RFU ORM1 (11744905_x_at) / Fold change /veh ORM1 (11744905_x_at) / RFU CCDC152 (11743942_at) / Fold change /veh CCDC152 (11743942_at) / RFU ECM1 (11717891_a_at) / Fold change /veh ECM1 (11717891_a_at) / RFU IL23R (11748794_a_at) / Fold change /veh IL23R (11748794_a_at) / RFU TNFAIP8L3 (11732012_x_at) / Fold change /veh TNFAIP8L3 (11732012_x_at) / RFU MBOAT4 (11741988_at) / Fold change /veh MBOAT4 (11741988_at) / RFU 11764193_at / Fold change /veh 11764193_at / RFU TMEM53 (11763286_at) / Fold change /veh TMEM53 (11763286_at) / RFU MAGEB2 (11727129_at) / Fold change /veh MAGEB2 (11727129_at) / RFU TMEM200A (11744735_a_at) / Fold change /veh TMEM200A (11744735_a_at) / RFU CCDC152 (11751479_a_at) / Fold change /veh CCDC152 (11751479_a_at) / RFU FAM211A (11726209_a_at) / Fold change /veh FAM211A (11726209_a_at) / RFU RGS16 (11746705_a_at) / Fold change /veh RGS16 (11746705_a_at) / RFU VCAN (11755009_s_at) / Fold change /veh VCAN (11755009_s_at) / RFU RHOB (11743442_s_at) / Fold change /veh RHOB (11743442_s_at) / RFU RGS16 (11720943_a_at) / Fold change /veh RGS16 (11720943_a_at) / RFU RGS16 (11720944_at) / Fold change /veh RGS16 (11720944_at) / RFU, VPS4B / Fold change vs veh, VPS4B / RFU, CREB1 / Fold change vs veh, CREB1 / RFU, DNAJC13 / Fold change vs veh, DNAJC13 / RFU, GNAQ / Fold change vs veh, GNAQ / RFU, CDK5R1 / Fold change vs veh, CDK5R1 / RFU, ZRANB3 / Fold change vs veh, ZRANB3 / RFU, CUL4A / Fold change vs veh, CUL4A / RFU, CCNY / Fold change vs veh, CCNY / RFU, UFL1 / Fold change vs veh, UFL1 / RFU, COG3 / Fold change vs veh, COG3 / RFU, DIAPH2 / Fold change vs veh, DIAPH2 / RFU, SKA2 / Fold change vs veh, SKA2 / RFU, AFF3 / Fold change vs veh, AFF3 / RFU, LMF1 / Fold change vs veh, LMF1 / RFU, IPO11 / Fold change vs veh, IPO11 / RFU, DFFB / Fold change vs veh, DFFB / RFU, FOXP1 / Fold change vs veh, FOXP1 / RFU, CARD8 / Fold change vs veh, CARD8 / RFU, STRN3 / Fold change vs veh, STRN3 / RFU, ADK / Fold change vs veh, ADK / RFU, RASSF2 / Fold change vs veh, RASSF2 / RFU, WIPF1 / Fold change vs veh, WIPF1 / RFU, LARP1B / Fold change vs veh, LARP1B / RFU, RASA1 / Fold change vs veh, RASA1 / RFU, RB1 / Fold change vs veh, RB1 / RFU, PPFIA1 / Fold change vs veh, PPFIA1 / RFU, MAT2A / Fold change vs veh, MAT2A / RFU, CCT5 / Fold change vs veh, CCT5 / RFU, WDR92 / Fold change vs veh, WDR92 / RFU, CUX1 / Fold change vs veh, CUX1 / RFU, TTC7A / Fold change vs veh, TTC7A / RFU, TMEM135 / Fold change vs veh, TMEM135 / RFU, DEPTOR / Fold change vs veh, DEPTOR / RFU, CPM / Fold change vs veh, CPM / RFU, DNAJB6 / Fold change vs veh, DNAJB6 / RFU, CACNA2D3 / Fold change vs veh, CACNA2D3 / RFU, DTX4 / Fold change vs veh, DTX4 / RFU, TFCP2 / Fold change vs veh, TFCP2 / RFU, GMCL1 /// GMCL1P1 / Fold change vs veh, GMCL1 /// GMCL1P1 / RFU, AEBP2 / Fold change vs veh, AEBP2 / RFU, SNHG1 /// SNORD22 /// SNORD25 /// SNORD26 /// SNORD27 /// SNORD28 /// SNORD29 /// SNORD31 / Fold change vs veh, SNHG1 /// SNORD22 /// SNORD25 /// SNORD26 /// SNORD27 /// SNORD28 /// SNORD29 /// SNORD31 / Fold change (Aza/veh), C12orf56 (ProbeSet 11735607_a_at) / Fold change (ACY-1035/veh), C12orf56 (ProbeSet 11735607_a_at) / Fold change (Aza/veh), FGFR1OP (ProbeSet 11751329_s_at) / Fold change (ACY-1035/veh), FGFR1OP (ProbeSet 11751329_s_at) / Fold change (Aza/veh), VPS36 (ProbeSet 11739960_a_at) / Fold change (ACY-1035/veh), VPS36 (ProbeSet 11739960_a_at) / RFU SYPL1 (11715823_x_at) / Fold change /veh SYPL1 (11715823_x_at) / RFU IGFBP7 (11715501_s_at) / Fold change /veh IGFBP7 (11715501_s_at) / RFU REEP3 (11722064_at) / Fold change /veh REEP3 (11722064_at) / RFU IGLL1 (11728026_x_at) / Fold change /veh IGLL1 (11728026_x_at): dose or concentration left out as unconfirmed
Conditions: MV-4-11 cells, 48 hours

Nc1ncn([C@@H]2O[C@H](CO)[C@@H](O)[C@H]2O)c(=O)n1 [azacitidine]
RFU OR4N2 (11742367_at): 68.76 RFU
